Measured values published in the OligoGym collection.
Bases are written 5' to 3'; sugars and linkages follow in the same order, as letters with counts (s phosphorothioate, o phosphodiester; PS: all linkages phosphorothioate). C may stand for cytosine or 5-methylcytosine; the collection does not tell. l = locked nucleic acid (LNA); d = 2'-deoxy (DNA)

Target: HIF1A
Test: HeLa, 100 nM transfected, 24 h, mean of 3
Conditions: ASO

Sequence	caspase activation (% of PBS control)
CAAGCATCCTGTA (sugars l3 d7 l3, PS)	437
CAAGCATCCTGTA (sugars l3 d8 l2, PS)	302
CAAGCATCCTGTA (sugars l3 d9 l1, PS)	237
CAAGCATCCTGTA (sugars l4 d6 l1 d1 l1, PS)	159
CAAGCATCCTGTA (sugars l4 d6 l3, PS)	171
CAAGCATCCTGTA (sugars l4 d7 l2, PS)	212
CAAGCATCCTGTA (sugars l4 d8 l1, PS)	194
CAAGCATCCTGTA (sugars lddlddddddldl, PS)	100
CAAGCATCCTGTA (sugars ldldddddddldl, PS)	136
CAAGCATCCTGTA (sugars ldllddddddldl, PS)	130
CAAGCATCCTGTA (sugars lldlddddddldl, PS)	142
GCAAGCATCCTGT (sugars l1 d1 l1 d7 l3, PS)	239
GCAAGCATCCTGT (sugars l1 d1 l1 d8 l2, PS)	188
GCAAGCATCCTGT (sugars l1 d1 l1 d9 l1, PS)	165
GCAAGCATCCTGT (sugars l1 d1 l2 d6 l3, PS)	186
GCAAGCATCCTGT (sugars l1 d1 l2 d7 l2, PS)	220
GCAAGCATCCTGT (sugars l1 d1 l2 d8 l1, PS)	191
GCAAGCATCCTGT (sugars l1 d2 l1 d6 l3, PS)	154
GCAAGCATCCTGT (sugars l1 d2 l1 d7 l2, PS)	151
GCAAGCATCCTGT (sugars l1 d2 l1 d8 l1, PS)	187
GCAAGCATCCTGT (sugars l1 d9 l1 d1 l1, PS)	124
GCAAGCATCCTGT (sugars l1 d9 l3, PS)	147
GCAAGCATCCTGT (sugars l1 d10 l2, PS)	112
GCAAGCATCCTGT (sugars l1 d11 l1, PS)	137
GCAAGCATCCTGT (sugars l2 d1 l1 d6 l3, PS)	267
GCAAGCATCCTGT (sugars l2 d1 l1 d7 l2, PS)	319
GCAAGCATCCTGT (sugars l2 d1 l1 d8 l1, PS)	314

Sequence	caspase activation (% of PBS control)
GCAAGCATCCTGT (sugars l2 d8 l1 d1 l1, PS)	281
GCAAGCATCCTGT (sugars l2 d8 l3, PS)	401
GCAAGCATCCTGT (sugars l2 d9 l2, PS)	285
GCAAGCATCCTGT (sugars l2 d10 l1, PS)	279
GCAAGCATCCTGT (sugars l3 d7 l1 d1 l1, PS)	426
GCAAGCATCCTGT (sugars l3 d7 l3, PS)	600
GCAAGCATCCTGT (sugars l3 d8 l2, PS)	450
GCAAGCATCCTGT (sugars l3 d9 l1, PS)	346
GCAAGCATCCTGT (sugars l4 d6 l1 d1 l1, PS)	305
GCAAGCATCCTGT (sugars l4 d6 l3, PS)	340
GCAAGCATCCTGT (sugars l4 d7 l2, PS)	352
GCAAGCATCCTGT (sugars l4 d8 l1, PS)	344
GCAAGCATCCTGT (sugars lddlddddddldl, PS)	109
GCAAGCATCCTGT (sugars ldldddddddldl, PS)	181
GCAAGCATCCTGT (sugars ldllddddddldl, PS)	176
GCAAGCATCCTGT (sugars lldlddddddldl, PS)	209
GGCAAGCATCCTG (sugars l1 d1 l1 d7 l3, PS)	721
GGCAAGCATCCTG (sugars l1 d1 l1 d8 l2, PS)	685
GGCAAGCATCCTG (sugars l1 d1 l1 d9 l1, PS)	339
GGCAAGCATCCTG (sugars l1 d1 l2 d6 l3, PS)	495
GGCAAGCATCCTG (sugars l1 d1 l2 d7 l2, PS)	688
GGCAAGCATCCTG (sugars l1 d1 l2 d8 l1, PS)	547
GGCAAGCATCCTG (sugars l1 d2 l1 d6 l3, PS)	397
GGCAAGCATCCTG (sugars l1 d2 l1 d7 l2, PS)	361
GGCAAGCATCCTG (sugars l1 d2 l1 d8 l1, PS)	205
GGCAAGCATCCTG (sugars l1 d9 l1 d1 l1, PS)	390
